# Results published in ChEMBL document CHEMBL3885881, “DrugMatrix”.
# Species: Rattus norvegicus
# Test: DrugMatrix - Regimen: Daily Repeat
# Format: toxicity, organism-based, Sprague-Dawley
# Parameters: regimen Daily Repeat, gender Male, age 6-8 weeks
# Settings: in vivo, po, 0 mg/kg, route oral GAVAGE, dose level Control, vehicle .5 % CMC; for ABSOLUTE BASOPHIL / ABSOLUTE EOSINOPHIL / ABSOLUTE LYMPHOCYTE / ABSOLUTE MONOCYTE / ABSOLUTE SEGMENTED NEUTROPHIL / BASOPHIL / EOSINOPHIL / ERYTHROCYTE COUNT / HEMATOCRIT / HEMOGLOBIN / LEUKOCYTE COUNT / LYMPHOCYTE / MEAN CORPUSCULAR HEMOGLOBIN / MEAN CORPUSCULAR HEMOGLOBIN CONCENTRATION / MEAN CORPUSCULAR VOLUME / MONOCYTE / NEUTROPHIL / NUCLEATED RED BLOOD CELLS / PLATELET COUNT: tissue Blood; for ALANINE AMINOTRANSFERASE / ALBUMIN / ALKALINE PHOSPHATASE / ASPARTATE AMINOTRANSFERASE / BLOOD UREA NITROGEN / CARBON DIOXIDE / CHLORIDE / CHOLESTEROL / CREATINE PHOSPHOKINASE / CREATININE / GLUCOSE / LACTATE DEHYDROGENASE / LIPASE / PHOSPHORUS / POTASSIUM / SODIUM / TOTAL BILIRUBIN / TOTAL PROTEIN / URIC ACID: tissue Plasma
compound,measurement,setting,value
COc1ccc(/C=C/C(=O)Nc2ccccc2C(=O)O)cc1OC,ABSOLUTE BASOPHIL,"72 h, time 3 day",0 CELLS/uL
same,ABSOLUTE EOSINOPHIL,"72 h, time 3 day",222.83 CELLS/uL
same,ABSOLUTE LYMPHOCYTE,"72 h, time 3 day",14453 CELLS/uL
same,ABSOLUTE MONOCYTE,"72 h, time 3 day",0 CELLS/uL
same,ABSOLUTE SEGMENTED NEUTROPHIL,"72 h, time 3 day",1490.83 CELLS/uL
same,BASOPHIL,"72 h, time 3 day",0%
same,EOSINOPHIL,"72 h, time 3 day",1.33%
same,ERYTHROCYTE COUNT,"72 h, time 3 day",5.76 x10E6/uL
same,HEMATOCRIT,"72 h, time 3 day",36.52%
same,HEMOGLOBIN,"72 h, time 3 day",13.45 G/DL
same,LEUKOCYTE COUNT,"72 h, time 3 day",16.17 x10E3/uL
same,LYMPHOCYTE,"72 h, time 3 day",89.33%
same,MEAN CORPUSCULAR HEMOGLOBIN,"72 h, time 3 day",23.37 pg
same,MEAN CORPUSCULAR HEMOGLOBIN CONCENTRATION,"72 h, time 3 day",36.85 G/DL
same,MEAN CORPUSCULAR VOLUME,"72 h, time 3 day",63.47 fL
same,MONOCYTE,"72 h, time 3 day",0%
same,NEUTROPHIL,"72 h, time 3 day",9.33%
same,NUCLEATED RED BLOOD CELLS,"72 h, time 3 day",0 /100WBC
same,PLATELET COUNT,"72 h, time 3 day",1239.5 x10E3/uL
same,ALANINE AMINOTRANSFERASE,"72 h, time 3 day",43.83 u/L
same,ALBUMIN,"72 h, time 3 day",4.27 G/DL
same,ALKALINE PHOSPHATASE,"72 h, time 3 day",398.83 u/L
same,ASPARTATE AMINOTRANSFERASE,"72 h, time 3 day",81.17 u/L
same,BLOOD UREA NITROGEN,"72 h, time 3 day",17.67 mg/dL
same,CARBON DIOXIDE,"72 h, time 3 day",27.5 mmol/L
same,CHLORIDE,"72 h, time 3 day",99.17 MEQ/L
same,CHOLESTEROL,"72 h, time 3 day",74 mg/dL
same,CREATINE PHOSPHOKINASE,"72 h, time 3 day",331.5 u/L
same,CREATININE,"72 h, time 3 day",0.2 mg/dL
same,GLUCOSE,"72 h, time 3 day",171.33 mg/dL
same,LACTATE DEHYDROGENASE,"72 h, time 3 day",241.67 u/L
same,LIPASE,"72 h, time 3 day",9.5 u/L
same,PHOSPHORUS,"72 h, time 3 day",12.25 mg/dL
same,POTASSIUM,"72 h, time 3 day",6.33 MEQ/L
same,SODIUM,"72 h, time 3 day",141.28 MEQ/L
same,TOTAL BILIRUBIN,"72 h, time 3 day",0.15 mg/dL
same,TOTAL PROTEIN,"72 h, time 3 day",5.98 G/DL
same,URIC ACID,"72 h, time 3 day",1.63 mg/dL
same,ABSOLUTE BASOPHIL,"120 h, time 5 day",0 CELLS/uL
same,ABSOLUTE EOSINOPHIL,"120 h, time 5 day",148.67 CELLS/uL
same,ABSOLUTE LYMPHOCYTE,"120 h, time 5 day",16020.5 CELLS/uL
same,ABSOLUTE MONOCYTE,"120 h, time 5 day",29.17 CELLS/uL
same,ABSOLUTE SEGMENTED NEUTROPHIL,"120 h, time 5 day",1468.33 CELLS/uL
same,BASOPHIL,"120 h, time 5 day",0%
same,EOSINOPHIL,"120 h, time 5 day",1%
same,ERYTHROCYTE COUNT,"120 h, time 5 day",5.78 x10E6/uL
same,HEMATOCRIT,"120 h, time 5 day",35.77%
same,HEMOGLOBIN,"120 h, time 5 day",13.4 G/DL
same,LEUKOCYTE COUNT,"120 h, time 5 day",17.67 x10E3/uL
same,LYMPHOCYTE,"120 h, time 5 day",90.5%
same,MEAN CORPUSCULAR HEMOGLOBIN,"120 h, time 5 day",23.22 pg
same,MEAN CORPUSCULAR HEMOGLOBIN CONCENTRATION,"120 h, time 5 day",37.47 G/DL
same,MEAN CORPUSCULAR VOLUME,"120 h, time 5 day",61.92 fL
same,MONOCYTE,"120 h, time 5 day",0.17%
same,NEUTROPHIL,"120 h, time 5 day",8.33%
same,NUCLEATED RED BLOOD CELLS,"120 h, time 5 day",0.17 /100WBC
same,PLATELET COUNT,"120 h, time 5 day",1255.5 x10E3/uL
same,ALANINE AMINOTRANSFERASE,"120 h, time 5 day",46.5 u/L
same,ALBUMIN,"120 h, time 5 day",4.38 G/DL
same,ALKALINE PHOSPHATASE,"120 h, time 5 day",336 u/L
same,ASPARTATE AMINOTRANSFERASE,"120 h, time 5 day",76.5 u/L
same,BLOOD UREA NITROGEN,"120 h, time 5 day",20 mg/dL
same,CARBON DIOXIDE,"120 h, time 5 day",27.5 mmol/L
same,CHLORIDE,"120 h, time 5 day",101 MEQ/L
same,CHOLESTEROL,"120 h, time 5 day",71.33 mg/dL
same,CREATINE PHOSPHOKINASE,"120 h, time 5 day",231.83 u/L
same,CREATININE,"120 h, time 5 day",0.37 mg/dL
same,GLUCOSE,"120 h, time 5 day",168.83 mg/dL
same,LACTATE DEHYDROGENASE,"120 h, time 5 day",174 u/L
same,LIPASE,"120 h, time 5 day",8.67 u/L
same,PHOSPHORUS,"120 h, time 5 day",11.48 mg/dL
same,POTASSIUM,"120 h, time 5 day",6.82 MEQ/L
same,SODIUM,"120 h, time 5 day",143.8 MEQ/L
same,TOTAL BILIRUBIN,"120 h, time 5 day",0.2 mg/dL
same,TOTAL PROTEIN,"120 h, time 5 day",5.98 G/DL
same,URIC ACID,"120 h, time 5 day",1.83 mg/dL
